US8957114B2, “Formulations, salts and polymorphs of transnorsertraline and uses thereof” (Sunovion Pharmaceuticals Inc., priority 2009, dated 2015)
Where two headings read alike, the source gives them in different places. Marks after values point to notes of the source that are not given here.

Tests used:
[1] = Stability of isolated degradants of formula (III) fractions; assay type: physicochemical; conditions: for compound converted: in the presence of NH4OAc, after 24 hours; for stability of freshly isolated fractions: without NH4OAc, a few days at room temperature
Protocol: Degradation products of active were isolated using semi-preparative HPLC (Zorbax SB-SN, 5 um, 9.2×250 mm; 20% ACN/H2O with 0.1% formic acid as mobile phase, 4 mL/min) with the aforementioned open dish degradation sample. Fractions containing these impurities were neutralized with 0.1 M NH4OAc before drying under vacuum to prevent possible decomposition.
Impurities 3 and 4 share the same molecular weight of 323 with almost identical MS fragmentation pattern. After the isolation and drying process, it was noticed that impurities 3 and 4 were converted to impurities 1 and 2 respectively (by HPLC retention time, MS data and ^1H NMR spectrum).
However, in the presence of NH4OAc, almost 50% of the compounds were converted after 24 hours. Furthermore, it was observed that upon drying under vacuum, Degradants III-c and III-d were converted to Degradants III-a and III-b independent of the presence of NH4OAc. Because the molecular formula difference between Degradants III-c and III-a was one oxygen atom as measured by HR-MS, it was concluded that Degradants […] and III-d were a diasteromeric pair of 4-hydroperoxy transnorsertraline. The conversions from impurity 3 and Degradant III-d to Degradants III-a and III-b may be by a decomposition process of hydroperoxides.

[2] = Stability of transnorsertraline HCl blends with mannitol lots containing mannose, amount of degradant II (open dish 30° C./65% RH, HPLC); assay type: physicochemical
Description: The amount of conjugate degradant leveled off at about two weeks and then slightly declined as stress time increases. Formation of the degradant of formula II also depends on the temperature.
The amount of mannose in mannitol appeared to be the controlling factor, not the type of mannitol used in transnorsertraline HCl formulation (i.e., crystalline vs. spray dried). This was later confirmed from the results obtained using recrystallized mannitol samples spiked with mannose in the stability study of transnorsertraline HCl formulations.
Three recrystallized mannitol lots spiked with mannose were selected for further study based on their % mannose values. Crystalline mannitol and spray dried mannitol were used as controls. The recrystallized spray dried mannitol lot was also used in the study to determine whether the type of mannitol used (crystalline vs. spray dried) was significant. Transnorsertraline HCl blends were made using the selected mannitol lots and placed at 30° C./65% RH under open dish conditions and analyzed initially and then at 2, 4 and 6 weeks using HPLC.

[3] = Moisture content by coulometric Karl Fischer titration (KF); assay type: physicochemical
Protocol: (§1) Each salt was analyzed by coulometric titration using an EM Scientific Aquastar C3000 titrator to determine water content. […] Each salt was analyzed using a Perkin Elmer TGA 7 Thermal Gravimetric Analyzer (TGA). […] Moisture sorption isotherms for each salt were generated using the VTI SGA-100 Symmetric Vapor Sorption Analyzer. Samples were run as received without pre-analysis drying. Equilibrium criteria were the lesser of 0.01 wt % change in 5 minutes or 180 minutes at each relative humidity (RH) step. […] Analysis was repeated for each sample in consecutive analyses (sample was not removed from analyzer). Sample sizes ranged from 18 mg to 35 mg.

[4] = Thermal gravimetric analysis (TGA) weight loss; assay type: physicochemical; conditions: heated 25° C. to 325° C. at 10° C./min
Protocol: The sixteen salts of transnorsertraline of Example 6.14 were analyzed for moisture content and hygroscopicity. Each salt was analyzed by coulometric titration using an EM Scientific Aquastar C3000 titrator to determine water content. Sample size ranged from 18 mg to 134 mg. Each salt was analyzed using a Perkin Elmer TGA 7 Thermal Gravimetric Analyzer (TGA). […] Moisture sorption isotherms for each salt were generated using the VTI SGA-100 Symmetric Vapor Sorption Analyzer. Samples were run as received without pre-analysis drying. Equilibrium criteria were the lesser of 0.01 wt % change in 5 minutes or 180 minutes at each relative humidity (RH) step. Temperature was fixed at 25° C. and the relative humidity steps (25 to 95% to 25%) were in 5% increments. Analysis was repeated for each sample in consecutive analyses (sample was not removed from analyzer). Sample sizes ranged from 18 mg to 35 mg.

[5] = VTI moisture sorption isotherm (hygroscopicity); assay type: physicochemical; conditions: for VTI Adsorp. (% wt gain 25 to 95% RH) / VTI Desorp. (% wt loss 95 to 25% RH): 25° C.
Protocol: as §1

[6] = Solubility of transnorsertraline salts in de-ionized water (HPLC); conditions: saturated solution in de-ionized water
Protocol: For each salt, saturated solutions with excess solids in deionized water were prepared in 20 mL clear glass scintillation vials with screw caps. All samples were shaken at 300 rpm at ambient conditions for up to nine days until equilibrium was achieved. Solubility was determined using a HPLC method (Table 5).

[7] = Solubility of transnorsertraline salts in aqueous buffer systems (SGF, acetate buffer pH 4.5, SIF; HPLC); assay type: physicochemical
Protocol: Saturated solutions with excess solids were prepared in 20 mL clear glass scintillation vials. Simulated gastric fluid (pH 1.0, ˜0.1N HCl, 0.03M NaCl, no enzymes), simulated intestinal fluid (pH 6.8, 0.05M KH2PO4, ˜0.02N NaOH, no enzymes), and acetate buffer (pH 4.5, 0.02M sodium acetate, 0.03M acetic acid) were prepared in accordance with USP28 (USP28 Test Solutions p2855, Volumetric Solutions p2863). […] Solubility was determined using a HPLC method.

[8] = Polymorphic conversion of anhydrous transnorsertraline hydrochloride to hydrate in aqueous media, in-situ Raman monitoring; assay type: physicochemical
Protocol: The study of the conversion of anhydrous transnorsertraline hydrochloride to the hydrate form in aqueous media was investigated, using in-situ Raman monitoring.
Raman spectroscopy was performed using a Kaiser Optical Systems Inc. dispersive RamanRXN3 for on-line or in-situ reaction monitoring. The RamanRXN3 system uses an excitation wavelength of 785 nm, with an external cavity-stabilized, diode laser. All spectra were acquired using a ¼″ immersion probe with approximately 100 mW of laser power at the tip of the probe. Different exposure times and numbers of spectrum accumulations were used for the analysis of the two dry samples. An exposure time of 4 seconds with 2 accumulations was used for the monitoring of all form conversions experiments. Wavelength and laser wavelength calibration were performed using an internal neon standard, and diamond Raman shift standard, respectively. The intensity calibration was performed using a Kaiser Raman calibration accessory.
Regions 660-715 cm^−1 and 1430-1490 cm^−1 in particular show little overlapping of the peaks characteristic of each form. Experimental results confirmed that no peaks in the regions […] and 1430-1490 cm^−1 were likely to overlap with peaks of interest to follow the conversion between the two crystalline forms of transnorsertraline hydrochloride.
The conversion of anhydrous transnorsertraline hydrochloride to the monohydrate form was monitored in water. […] Based on the peak intensity ratio I(677 cm^−1)/I(695 cm^−1), an induction time of approximately 1.1 hour was seen before the beginning of the conversion. The end of the conversion was estimated at approximately 2 hours from the beginning of the slurry. […] XRPD analysis of the solids collected at the end of the Raman monitoring of the conversion (after approximately 2 h 10 min) was consistent with the hydrate form, with a small amount of anhydrous form detectable. […] Additionally, the Raman limit of detection of the anhydrous form in the mixture was not estimated.
The conversion of anhydrous transnorsertraline hydrochloride to the hydrate form in water, simulated gastric fluid (SGF) and simulated intestinal fluid (SIF) without enzymes, and 0.1N HCl was monitored at 37° C.
Overall, similar results were obtained in water and simulated gastric fluid, with the start of the form conversion detected at approximately 1.3 hours, with a slightly faster conversion in simulated gastric fluid compared to water. The complete conversion was estimated to occur within 3 to 4 hours in the two media. […] XPRD analysis of the solids collected at the end of each experiments were consistent with the hydrate form, with or without some anhydrous form present. The small amount of anhydrous form may be due to residual solids on the walls of the vessel at the time of the slurry.

[9] = Solid stability of transnorsertraline salts (HPLC impurities); assay type: physicochemical; conditions: HDPE container
Protocol: Salts of transnorsertraline were tested for solid stability under various conditions. Solid samples of the HCl salt were placed in double-polyehylene lined high density polyethylene (HDPE) containers closed with HDPE lids and stored at 25° C./60% relative humidity or 40° C./75% relative humidity. Samples were analyzed by HPLC.

[10] = first analysis, listed as L-malate lot 1
[11] = first analysis, listed as L-malate lot 2
[12] = first analysis, listed as L-malate lot 3
[13] = repeated consecutive analysis (second line)
[14] = saturated solution in 0.05M Acetate Buffer (pH 4.5)
[15] = saturated solution in Simulated Gastric Fluid
[16] = saturated solution in Simulated Intestinal Fluid
[17] = SIF without enzymes, 37° C., large scale
[18] = SIF without enzymes, 37° C., larger scale
[19] = SIF without enzymes, 37° C., small scale

Molecule | compound converted [1] | stability of freshly isolated fractions [1] | Initial KF (% H2O) [3] | TGA (% wt loss) [4] | VTI Adsorp. (% wt gain 25 to 95% RH) ([5]; first analysis) | VTI Desorp. (% wt loss 95 to 25% RH) ([5]; first analysis) | VTI Adsorp. (% wt gain 25 to 95% RH) [5, 13] | VTI Desorp. (% wt loss 95 to 25% RH) [5, 13] | pH [6] | Solubility in Freebase Equivalents mgA/mL ([7]; pH 4.5) | Solubility in Freebase Equivalents mgA/mL ([7]; pH 6.8) | pH [7, 14] | pH [7, 15] | pH [7, 16] | form conversion completed ([8]; 0.1N HCl, 37° C.) | form conversion completed ([8]; SGF without enzymes, 37° C.) | start of form conversion to hydrate ([8]; SGF without enzymes, 37° C.) | end of form conversion [8, 17] | start of form conversion to hydrate [8, 18] | end of form conversion [8, 19] | also measured
N[C@@H]1CCC(OO)(c2ccc(Cl)c(Cl)c2)c2ccccc21 (single isomer, unassigned) [Degradant-III-c, 4-hydroperoxy transnorsertraline] | ~50% | relatively stable |  |  |  |  |  |  |  |  |  |  |  |  |  |  |  |  |  |  | 
N[C@@H]1CCC(OO)(c2ccc(Cl)c(Cl)c2)c2ccccc21 (single isomer, unassigned) [III-d, 4-hydroperoxy transnorsertraline] | ~50% | relatively stable |  |  |  |  |  |  |  |  |  |  |  |  |  |  |  |  |  |  | 
OCC1OC(NC2CCC(c3ccc(Cl)c(Cl)c3)c3ccccc32)C(O)C(O)C1O (stereo not shown) [degradant of formula II] |  |  |  |  |  |  |  |  |  |  |  |  |  |  |  |  |  |  |  |  | behaviour of degradant at higher temperature [2]: underwent decomposition
Transnorsertraline L-Malate |  |  | 0.05 % H2O | 0.07 % wt loss | 0.08 % wt gain | 0.08 % wt loss | 0.06 % wt gain | 0.06 % wt loss | 4.15 | 1.59^b mgA/mL | 0.38 mgA/mL | 4.42 | 1.15 | 6.68 |  |  |  |  |  |  | Initial KF (% H2O) ([3]; listed as L-malate lot 1): 0.05 % H2O; Initial KF (% H2O) ([3]; listed as L-malate lot 2): 0.08 % H2O; Initial KF (% H2O) ([3]; listed as L-malate lot 3): 0.04 % H2O; TGA (% wt loss) ([4]; listed as L-malate lot 1): 0.08 % wt loss; VTI Adsorp. (% wt gain 25 to 95% RH) [5, 10]: 0.08 % wt gain; VTI Desorp. (% wt loss 95 to 25% RH) [5, 10]: 0.08 % wt loss; VTI Adsorp. (% wt gain 25 to 95% RH) [5, 11]: 0.06 % wt gain; VTI Desorp. (% wt loss 95 to 25% RH) [5, 11]: 0.07 % wt loss; VTI Adsorp. (% wt gain 25 to 95% RH) [5, 12]: 5.31 % wt gain; VTI Desorp. (% wt loss 95 to 25% RH) [5, 12]: 5.23 % wt loss; VTI Adsorp. (% wt gain 25 to 95% RH) ([5]; repeated consecutive analysis (second line), listed as L-malate lot 1): 0.06 % wt gain; VTI Adsorp. (% wt gain 25 to 95% RH) ([5]; repeated consecutive analysis (second line), listed as L-malate lot 2): 0.07 % wt gain; moisture adsorbed more than other L-malate lots ([5]; from 25 to 95% relative humidity): > 5%; Solubility in Freebase Equivalents mgA/mL ([7]; pH 1): 0.08^b mgA/mL
transnorsertraline hydrochloride [HCl] |  |  | 0.02 % H2O | 0.00 % wt loss | 0.01 % wt gain | 0.02 % wt loss | 0.01 % wt gain | 0.02 % wt loss | 5.32 | 2.15 mgA/mL | 0.24 mgA/mL | 4.58 | 1.28 | 6.75 | approximately 4 hours | 3 to 4 h | approximately 1.3 hours | ~36 h | ~19 h | approximately 12.5 hours | VTI adsorption, weight gain ([5]; second lot, from 25 to 95% relative humidity): 0.01%; VTI desorption, weight loss ([5]; second lot, from 95% to 25% relative humidity): 0.01%; Solubility in Freebase Equivalents mgA/mL [7]: 0.13 mgA/mL; induction time of form conversion ([8]; 0.1N HCl, 37° C., larger scale): 2 to 2.3 h; start of form conversion to hydrate [8, 19]: ~10 h; form conversion completed ([8]; water, 37° C.): 3 to 4 h; start of form conversion to hydrate ([8]; water, 37° C.): approximately 1.3 hours
transnorsertraline hydrochloride anhydrate |  |  |  |  |  |  |  |  |  |  |  |  |  |  | 3 to 4 h | 3 to 4 h | approximately 1.3 hours | ~36 h | ~19 h | approximately 12.5 hours | impurities (HPLC) ([9]; 25° C./60% RH and 40° C./75% RH, at least 6 months): less than 0.05%; impurities (HPLC) ([9]; 25° C./60% relative humidity, 2 years): less than 0.1%; start of form conversion to hydrate ([8]; 0.1N HCl, 37° C.): ~2 h; start of form conversion to hydrate [8, 19]: approximately 10 hours; induction time before the beginning of the conversion to monohydrate ([8]; slurry in water, Raman peak ratio I(677)/I(695)): approximately 1.1 hour; end of the conversion to monohydrate ([8]; slurry in water, from the beginning of the slurry): approximately 2 hours; form conversion completed ([8]; water, 37° C.): 3 to 4 h; start of form conversion to hydrate ([8]; water, 37° C.): approximately 1.3 hours
